Measurements: PMC4153677, “Probing the Activity Modification Space of the Cysteine Peptidase Cathepsin K with Novel Allosteric Modifiers” (PLoS ONE, 2014)

Legend:
[1] = target: T1, Recombinant human cathepsin K (Homo sapiens, UniProt P43235); test: Thermal stability of cathepsin K at pH 7.4 in the presence of modifiers; format: biochemical
T1 construct: made in house
T1 sequence (P43235 115-329): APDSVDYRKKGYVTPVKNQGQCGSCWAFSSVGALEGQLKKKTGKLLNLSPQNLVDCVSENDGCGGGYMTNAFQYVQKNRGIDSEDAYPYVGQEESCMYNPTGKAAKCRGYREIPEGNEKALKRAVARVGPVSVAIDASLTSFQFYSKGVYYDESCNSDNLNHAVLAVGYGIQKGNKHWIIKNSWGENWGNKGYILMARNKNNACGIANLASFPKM
Experimental: Cathepsin K was incubated at 37°C in 50 mM Hepes buffer pH 7.40 containing 1 mM EDTA and 5 mM DTT in the presence or absence of each modifier. The final enzyme concentration was 0.2 µM and final compounds concentrations were 2 mM, except compound 2, which was used at a concentration of 1 mM. All experiments were performed in Eppendorf Protein LoBind Tubes to minimize the adsorption of proteins on tube walls. Aliquots were withdrawn from the reaction mixtures at regular time intervals and their residual activity measured using the substrate Z-FR↓AMC (5 µM final concentration). Inactivation curves had exponential profiles that were fitted with the mathematical model for one-phase exponential decay to determine the half-life of the enzyme in each reaction mixture.

[2] = target: T1, Recombinant human cathepsin K; test: Azocasein degradation assays; format: biochemical; settings: pH 5.5; substrate azocasein 3 mg/ml; 0.1 µM cathepsin K, 30 min 37°C, pH 5.50; compounds up to 2 mM (compound 2: 1 mM); read-out: Residual activity
From the text: Figure 4 Effect of modifiers on the degradation of macromolecular substrates. (A) Effect of increasing concentrations of compounds 1 and 2 on the degradation of calf skin collagen. Molecular mass standards are given in kDa and positions of α, β and γ chains of intact collagen are marked by arrows. (B) Effect of modifiers on azocasein degradation. (C) Effect of glycosaminoglycans and clusterin on azocasein degradation. Two different concentrations of each glycosaminoglycan were used in the experiments (10 µg/ml and 200 µg/ml). Error bars in panels B and C represent the SEM of three experiments. All experiments were performed in 100 mM sodium acetate buffer pH 5.50 containing 1 mM EDTA and 5 mM DTT, as described in detail in the Materials and Methods section. Abbreviations: CPD – compound, CS – chondroitin sulfate, DS – dermatan sulfate, HP – heparin.
Azocasein (Sigma-Aldrich, USA) was dissolved in 100 mM sodium acetate buffer pH 5.50 containing 1 mM EDTA and 5 mM DTT at a concentration of 3 mg/ml. Samples were incubated with 0.1 µM cathepsin K for 30 min at 37°C in the presence of each compound. […] Reactions were stopped by addition of trichloroacetic acid (final concentration 5% v/v), centrifuged, clear supernatants mixed with 0.5 M NaOH and the concentrations of solubilized peptides determined by measuring the absorbance at 440 nm. All experiments were performed in triplicates and appropriate blanks were run to take into account the absorption of azocasein and compounds alone. IC 50 values were determined as described previously.

stability: ln(sf), sf = ratio of half-lives in the presence and absence of modifier ([1]; 37 °C and pH 7.4): 0.79
Increase of stability (half-life) of cathepsin K ([1]; pH 7.4, 37°C, versus enzyme only): about 2 fold
remaining activity [2]: 93 ± 7%
Structure (SMILES): OC(c1cc(-c2ccc(C(F)(F)F)cc2)nc(C(F)(F)F)c1)C1CCCCN1 (stereo not drawn) [Compound 2, Piperidin-2-yl-[2-(trifluoromethyl)-6-[4-(trifluoromethyl)phenyl]pyridin-4-yl] methanol]
